Measurements: patent US8835510B2, “Methods and compositions for treating conditions mediated by oxidative stress or electrophilic environmental toxins” (priority 2010, dated 2014)
“Also recorded” adds a separate entry of the source.

Legend:
[1] = Cell viability (trypan blue) in H2O2-exposed MN9D cultures; details: mouse, MN9D cells
Experimental: (§1) As a more complex biological model, a determination was made of the relative abilities of the 1,3-dicarbonyls to protect MN9D cells, a dopaminergic cell line, from acrolein- (FIG. 6) or hydrogen peroxide (H2O2)-induced cell death (FIG. 7). Briefly, two days after plating, cells were incubated with AcAc (750 μM) for one hr followed by exposure to graded concentrations of either acrolein (0.50-150 μM×24 hrs) or H2O2 (50-750 μM×24 hrs). Cell viability was determined by trypan blue (0.1%) exclusion. Living cells were counted in a hemocytometer and total cells per dish were calculated.
(§2) This system represents a more complete model of oxidative stress since the hydroxyl radical formed from intracellular H2O2 during the Fenton reaction, subsequently mediates the generation of toxic aldehyde by-products such as acrolein and 4-hydroxy-2-nonenal (HNE).

[2] = Kinetic assay of acrolein-induced N-acetyl cysteine (NAC) sulfhydryl loss (DTNB method)
Text: As an index of cytoprotection, these studies focused on the abilities of 1,3-dicarbonyl compounds to prevent electrophile-induced loss of protein and non-protein sulfhydryl groups. This experimental focus is based on substantial evidence that soft electrophiles, like acrolein, produce toxicity by forming Michael-type adducts with soft nucleophilic thiolate (anionic sulfhydryl) groups on functionally critical proteins^9, 17, 22, 56, 57 (reviewed in^28, 58, 62, 77, 94). […] To test this hypothesis, a determination was made of the ability of AcAc and other structurally related enol analogs to prevent sulfhydryl (nucleophile) adduction by acrolein (electrophile)^56. […] Free sulfhydryl concentrations were determined over time (up to 15 mins) by the DTNB method of LoPachin et al.^52.
Therefore, as a kinetic index of competitive thiol protection by enolate sequestration, the relative in vitro abilities of 1,3-dicarbonyl compounds and phloretin to slow the rate of acrolein-induced sulfhydryl loss were measured.

[3] = system: control striatal synaptosomes; assay: In vitro toxicity: radiolabeled dopamine (DA) membrane transport in control striatal synaptosomes; details: FIG. 4
[4] = pKa and enolate ionization of enol compounds; format: physicochemical
[5] = system: MN9D cells; assay: Cytotoxicity of test compound alone in MN9D cultures; details: 100 μM
[6] = as above; details: mouse, MN9D cells
[7] = system: MN9D cells; assay: Cell viability (trypan blue) in acrolein-exposed MN9D cultures; details: pre-incubation 60 minutes, 750 μM each (phloretin 100 μM)
Experimental: as §1

[8] = system: MN9D cells; assay: Cell viability (trypan blue) in H2O2-exposed MN9D cultures; details: test compound 750 μM (phloretin 100 μM)
Experimental: as §1, §2

[9] = Free radical scavenging (DPPH absorbance method of Ak and Gulcin)
Experimental: The relative abilities of selected 1,3-dicarbonyl compounds to scavenge free radicals were determined using the spectrophotometric method of Ak and Gulcin (2008)^4 that measures changes in the absorbance of the 2,2-diphenyl-1-picrylhydrazyl radical.

[10] = Ferrous ion chelation (method of Dairam et al.)

SMILES	CC50 at 24 h [1] [µM]	rate of sulfhydryl loss (mean rate±SE) ([2]; NAC + acrolein 150 μM + test compound 50 μM co-incubated, Krebs buffer pH 7.4, 30° C.) [nmol SH sec^−1]	sulfhydryl (NAC) protection, pre-incubation ([2]; acrolein pre-incubated with test compound, NAC added one hour later)	sulfhydryl (NAC) protection, co-incubation ([2]; all chemicals added simultaneously)	synaptosomal toxicity of compound alone, DA transport (words, IC50 magnitude) [3]	pKa [4]	MN9D cell death / cell loss by compound alone [5] [%]	MN9D cell death / cell loss by compound alone ([5]; listed as Phloretin) [%]	CC50 [6] [µM]	protection against acrolein-induced cell death (words) [7]	protection against acrolein-induced cell death (words) ([7]; listed as Phloretin)	protection against H2O2-induced cell death [8]	DPPH radical scavenging [9]	Fe^2+ chelating activity [10]
OO [H2O2, hydrogen peroxide]	254	–	–	–	–	–	–	–	–	–	–	–	–	–
O=C(CCc1ccc(O)cc1)c1c(O)cc(O)cc1O [phloretin, reference compound]	–	−1.9±0.7	significant thiol protection	only marginally protective	relatively significant in vitro toxicity; also recorded: significant synaptosomal toxicity	7.3	~50	42	362	did not protect	did not provide cytoprotection	potentiated H2O2 toxicity	relatively weak DPPH. scavengers	little, if any, Fe^2+ chelating activity
